Laboratory results reported in patent US12319676B2, “Substituted amide compounds useful as farnesoid X receptor modulators” (BRISTOL-MYERS SQUIBB COMPANY, priority 2019, dated 2025).

What follows are compounds tested against T1, human FXR (Homo sapiens, UniProt Q96RI1) (assay: transient human FXR/Gal4-luciferase reporter assay). Conditions: Gal4-hFXR fusion construct, luciferase reporter in HEK293 cells; overnight incubation; response as percentage of 8 μM GW-4064 control.
T1 construct: expressed in transfected cells; host or cells: HEK293 cells stably carrying a 5xGal4 response element-luciferase reporter, transiently transfected with pcDNA3.1-Gal4-FXR
T1 sequence (Q96RI1 262-486 limits assumed): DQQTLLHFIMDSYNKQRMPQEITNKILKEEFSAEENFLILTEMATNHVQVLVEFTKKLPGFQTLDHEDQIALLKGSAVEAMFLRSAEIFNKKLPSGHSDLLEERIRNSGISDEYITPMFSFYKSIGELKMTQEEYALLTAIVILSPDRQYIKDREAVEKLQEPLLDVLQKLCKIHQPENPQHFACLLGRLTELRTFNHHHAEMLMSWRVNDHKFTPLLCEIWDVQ
Format: cell-based
Experimental: The exemplified compounds of the present invention were tested in the transient human FXR/Gal4-luciferase reporter assay, and assay results were reported in Table 1 and Examples 1 to 3 together with other analytical data. A Gal4-hFXR fusion construct reporter system was used as the primary assay to characterize compound activity. A construct including 5 copies of the Gal4 promoter response element upstream of a firefly luciferase reporter cDNA was stably expressed in HEK293 cells. This reporter cell line was maintained in Dulbecco's Modified Eagle's medium (DMEM; Gibco) supplemented with 1% penicillin-streptomycin (P/S) solution, 500 μg/mL Zeocin and 10% charcoal/dextran-treated fetal bovine serum (cs-FBS) at 37° C. in a humidified 5% CO2 atmosphere. Another plasmid was constructed in which the human cytomegalovirus promoter in the pcDNA3.1 vector directs the expression of the cDNA encoding a fusion protein comprised of the DNA binding domain from the Gal4 transcription factor fused to the ligand binding domain from human FXR. The day prior to transfection, the reporter cells in culture are detached from the plate with trypsin and plated into a T75 flask at a sufficient density to achieve approximately 90% confluence the next morning. The transfection reagents are prepared by separately diluting 25 μg of the pcDNA3.1-Gal4-FXR plasmid into 1.87 mL of Opti-MEM (Thermo-Fisher), and 40 μL of Lipofectamine 2000 (Thermo-Fisher) into 1.87 mL of Opti-MEM, and then adding the diluted DNA solution into the diluted Lipofectamine 2000 solution and incubating at room temperature for 15-20 minutes. The mixture is further diluted with 10 mL of a solution comprised of DMEM, 10% cs-FBS, and 1% P/S immediately prior to transferring to the cells. The maintenance culture media is aspirated from the cells and the final transfection mixture is added before the cells are incubated overnight at 37° C. in a humidified 5% CO2 atmosphere. This protocol can be scaled up, and the transiently transfected cells can be cryopreserved in an assay-ready format. For compound testing, 100 nL of the compounds (serial dilutions in DMSO) are dispensed with an Echo acoustic dispenser (Labcyte) into the wells of a Corning/Costar clear bottom 384-well white plate. The transfected cells are harvested, counted, and diluted such that 10-25,000 cells in 25 μL are plated into each well of the 384-well compound assay plate. The compound-treated cells are incubated overnight at 37° C. in a humidified 5% CO2 atmosphere. The next morning 25 μL of Steady-Glo (Promega) are added to each well of the plate, the mixture is incubated for 15 min. with shaking, and luminescence is measured on an Envision (Perkin Elmer) plate reader. Background counts from cells treated with DMSO alone are subtracted from all raw counts, and the corrected values are converted to a percentage of the control response attained with 8 μM GW-4064.

Row | SMILES | EC50 [nM]
1 | CC(C)(C)c1noc(C23CCC(CN(C(=O)C4CC(F)(F)C4)c4cccc(C#N)c4)(CC2)CC3)n1 [Example 41, N-((4-(3-(tert-butyl)-1,2,4-oxadiazol-5-yl)bicyclo[2.2.2]octan-1-yl)methyl)-N-(3-cyanophenyl)-3,3-difluorocyclobutane-1-carboxamide] | 171
2 | CC(C)(C)c1noc(C23CCC(CN(C(=O)C4CCC(F)(F)CC4)c4cccc(C#N)c4)(CC2)CC3)n1 [Example 42, N-((4-(3-(tert-butyl)-1,2,4-oxadiazol-5-yl)bicyclo[2.2.2]octan-1-yl)methyl)-N-(3-cyanophenyl)-4,4-difluorocyclohexane-1-carboxamide] | 1250
3 | CC(C)(C)c1noc(C23CCC(CN(C(=O)C45CC(F)(C4)C5)c4cccc(P(C)(C)=O)c4)(CC2)CC3)n1 [Example 43, N-((4-(3-(tert-butyl)-1,2,4-oxadiazol-5-yl)bicyclo[2.2.2]octan-1-yl)methyl)-N-(3-(dimethylphosphoryl)phenyl)-3-fluorobicyclo[1.1.1]pentane-1-carboxamide] | 4000
4 | CC(C)(C)c1noc(C23CCC(CN(C(=O)C4CC(F)(F)C4)c4cccc(P(C)(C)=O)c4)(CC2)CC3)n1 [Example 44, N-((4-(3-(tert-butyl)-1,2,4-oxadiazol-5-yl)bicyclo[2.2.2]octan-1-yl)methyl)-N-(3-(dimethylphosphoryl)phenyl)-3,3-difluorocyclobutane-1-carboxamide] | 4000
5 | CC(C)(C)c1noc(C23CCC(CN(c4cccc(P(C)(C)=O)c4)C(=O)[C@H]4C[C@](O)(C(F)(F)F)C4)(CC2)CC3)n1 [Example 45, (1S,3S)-N-((4-(3-(tert-butyl)-1,2,4-oxadiazol-5-yl)bicyclo[2.2.2]octan-1-yl)methyl)-N-(3-(dimethylphosphoryl)phenyl)-3-hydroxy-3-(trifluoromethyl)cyclobutane-1-carboxamide] | 4000
6 | CC(C)(C)c1noc(C23CCC(CN(C(=O)C4CCOCC4)c4cccc(P(C)(C)=O)c4)(CC2)CC3)n1 [Example 46, N-((4-(3-(tert-butyl)-1,2,4-oxadiazol-5-yl)bicyclo[2.2.2]octan-1-yl)methyl)-N-(3-(dimethylphosphoryl)phenyl)tetrahydro-2H-pyran-4-carboxamide] | 4000
7 | CC(F)(F)c1ccc(C23CCC(CN(C(=O)C45CC(F)(C4)C5)c4cccc(Br)c4)(CC2)CC3)nc1 [Example 48, N-(3-bromophenyl)-N-((4-(5-(1,1-difluoroethyl)pyridin-2-yl)bicyclo[2.2.2]octan-1-yl)methyl)-3-fluorobicyclo[1.1.1]pentane-1-carboxamide] | 288
8 | CC(F)(F)c1ccc(C23CCC(CN(c4cccc(C#N)c4)C(=O)[C@H]4C[C@@](C)(O)C4)(CC2)CC3)nc1 [Example 50, (1S,3S)-N-(3-cyanophenyl)-N-((4-(5-(1,1-difluoroethyl)pyridin-2-yl)bicyclo[2.2.2]octan-1-yl)methyl)-3-hydroxy-3-methylcyclobutane-1-carboxamide] | 1190
9 | CCOc1cccc(N(CC23CCC(c4nc(C5CC5)no4)(CC2)CC3)C(=O)C23CC(F)(C2)C3)c1 [Example 52, N-((4-(3-cyclopropyl-1,2,4-oxadiazol-5-yl)bicyclo[2.2.2]octan-1-yl)methyl)-N-(3-ethoxyphenyl)-3-fluorobicyclo[1.1.1]pentane-1-carboxamide] | 102
10 | CCOc1cccc(N(CC23CCC(c4nc(C5CC5)no4)(CC2)CC3)C(=O)C2CC(F)(F)C2)c1 [Example 53, N-((4-(3-cyclopropyl-1,2,4-oxadiazol-5-yl)bicyclo[2.2.2]octan-1-yl)methyl)-N-(3-ethoxyphenyl)-3,3-difluorocyclobutane-1-carboxamide] | 441
11 | CCOc1cccc(N(CC23CCC(c4nc(C5CC5)no4)(CC2)CC3)C(=O)[C@H]2C[C@](O)(C(F)(F)F)C2)c1 [Example 54, N-((4-(3-cyclopropyl-1,2,4-oxadiazol-5-yl)bicyclo[2.2.2]octan-1-yl)methyl)-N-(3-ethoxyphenyl)-3-hydroxy-3-(trifluoromethyl)cyclobutane-1-carboxamide] | 938
12 | CCOc1cccc(N(CC23CCC(c4nc(C5CC5)no4)(CC2)CC3)C(=O)C2CCOCC2)c1 [Example 55, N-((4-(3-cyclopropyl-1,2,4-oxadiazol-5-yl)bicyclo[2.2.2]octan-1-yl)methyl)-N-(3-ethoxyphenyl)tetrahydro-2H-pyran-4-carboxamide] | 320
13 | COc1cccc(N(CC23CCC(c4nc(C5CC5)no4)(CC2)CC3)C(=O)[C@H]2C[C@](O)(C(F)(F)F)C2)c1 [Example 57, (1S,3S)—N-((4-(3-cyclopropyl-1,2,4-oxadiazol-5-yl)bicyclo[2.2.2]octan-1-yl)methyl)-3-hydroxy-N-(3-methoxyphenyl)-3-(trifluoromethyl)cyclobutane-1-carboxamide] | 304
14 | COc1cccc(N(CC23CCC(c4nc(C5CC5)no4)(CC2)CC3)C(=O)C23CC(F)(C2)C3)c1 [Example 58, N-((4-(3-cyclopropyl-1,2,4-oxadiazol-5-yl)bicyclo[2.2.2]octan-1-yl)methyl)-3-fluoro-N-(3-methoxyphenyl)bicyclo[1.1.1]pentane-1-carboxamide] | 345
15 | COc1cccc(N(CC23CCC(c4nc(C5CC5)no4)(CC2)CC3)C(=O)C2CC(F)(F)C2)c1 [Example 59, N-((4-(3-cyclopropyl-1,2,4-oxadiazol-5-yl)bicyclo[2.2.2]octan-1-yl)methyl)-3,3-difluoro-N-(3-methoxyphenyl)cyclobutane-1-carboxamide] | 673

More lines, in order of falling EC50, values ahead:

Row | EC50 [nM] | SMILES
16 | 4000 | CC(C)(C)c1noc(C23CCC(CN(C(=O)C4CCS(=O)(=O)CC4)c4cccc(P(C)(C)=O)c4)(CC2)CC3)n1 [Example 47, N-((4-(3-(tert-butyl)-1,2,4-oxadiazol-5-yl)bicyclo[2.2.2]octan-1-yl)methyl)-N-(3-(dimethylphosphoryl)phenyl)tetrahydro-2H-thiopyran-4-carboxamide 1,1-dioxide]
17 | 4000 | CCOc1cccc(N(CC23CCC(c4nc(C5CC5)no4)(CC2)CC3)C(=O)C2CCS(=O)(=O)CC2)c1 [Example 56, N-((4-(3-cyclopropyl-1,2,4-oxadiazol-5-yl)bicyclo[2.2.2]octan-1-yl)methyl)-N-(3-ethoxyphenyl)tetrahydro-2H-thiopyran-4-carboxamide 1,1-dioxide]
18 | 4000 | COc1cccc(N(CC23CCC(c4nc(C5CC5)no4)(CC2)CC3)C(=O)C2CCS(=O)(=O)CC2)c1 [Example 61, N-((4-(3-cyclopropyl-1,2,4-oxadiazol-5-yl)bicyclo[2.2.2]octan-1-yl)methyl)-N-(3-methoxyphenyl)tetrahydro-2H-thiopyran-4-carboxamide 1,1-dioxide]
19 | 1330 | CC(F)(F)c1ccc(C23CCC(CN(c4cccc(C#N)c4)C(=O)[C@H]4C[C@](O)(C(F)(F)F)C4)(CC2)CC3)nc1 [Example 51, (1S,3S)-N-(3-cyanophenyl)-N-((4-(5-(1,1-difluoroethyl)pyridin-2-yl)bicyclo[2.2.2]octan-1-yl)methyl)-3-hydroxy-3-(trifluoromethyl)cyclobutane-1-carboxamide]
20 | 902 | COc1cccc(N(CC23CCC(c4nc(C5CC5)no4)(CC2)CC3)C(=O)C2CCOCC2)c1 [Example 60, N-((4-(3-cyclopropyl-1,2,4-oxadiazol-5-yl)bicyclo[2.2.2]octan-1-yl)methyl)-N-(3-methoxyphenyl)tetrahydro-2H-pyran-4-carboxamide]
21 | 327 | CC(F)(F)c1ccc(C23CCC(CN(C(=O)C45CC(F)(C4)C5)c4cccc(C#N)c4)(CC2)CC3)nc1 [Example 49, N-(3-cyanophenyl)-N-((4-(5-(1,1-difluoroethyl)pyridin-2-yl)bicyclo[2.2.2]octan-1-yl)methyl)-3-fluorobicyclo[1.1.1]pentane-1-carboxamide]
